“Also recorded” adds a separate entry of the source. Peptide text beside a SMILES is read from it.
B1: full length IL-4: recombinant human IL-4 (Peprotech) used on human H9 cell-derived neurons (protein, UniProt P05112 25-153, looked up)
Interleukin-4: HKCDITLQEIIKTLNSLTEQKTLCTELTVTDIFAASKNTTEKETFCRAATVLRQFYSHHEKDTRCLGATAQQFHRHKQLIRFLKRLDRNLWGLAGLNSCPVKEANQSTLENFLERLKTIMREKYSKCSS

Experiments:
[1] = system: mouse embryonic fibroblasts (Mef); assay: CellTiter-blue cell viability assay (ctb), fibroblasts; assay type: cell-based; settings: Mef cells, increasing concentrations, FIG. 2A
Procedure: (§1) Toxicity was checked by subjecting mouse embryonic fibroblasts (Mef) and the hippocampal cell line HT22 to a CellTiter-blue cell viability assay (ctb).
(§2) Mouse embryonic fibroblasts (Mef) (Sigma-Aldrich) and hippocampal HT22 (ThermoScientific) cells were cultured according to the manufacturer's protocols. Ctb assays were performed according to the manufacturer's protocols (Promega).

[2] = system: hippocampal cell line HT22; assay: CellTiter-blue cell viability assay (ctb), hippocampal cell line; assay type: cell-based; settings: HT22 cells, increasing concentrations, FIG. 2B
Procedure: as §1, §2

[3] = system: CD11b+ bone marrow-derived macrophages (BMDMs); assay: Differentiation of bone marrow-derived macrophages; assay type: cell-based, mouse; settings: different concentrations, FIG. 4A
Procedure: (§3) A-B: Effects of incubation with IL-4 and different concentrations of Link4 and Link13 on the differentiation of A: CD11b^+ bone marrow-derived macrophages (BMDMs) into F80^+CD206^+ cells, and B: CD4^+ T cells into Gata3^+ cells. C-D: FACS results for different populations of T cells and CD11b^+MHCII^+ monocytes/macrophages/microglia of immune cells isolated from C: spleen and D: central nervous system (CNS) of EAE mice treated with PBS, IL-4 or Link4.
(§4) In order to investigate whether Link4 and Link13 are able to modulate immune cells, in vitro assays were performed on bone marrow-derived macrophages (BDMBs) and on naïve T cells.
Murine BMDMs were isolated from adult C57BL/6 mice. The tibia and femur bones were flushed with sterile PBS and the bone marrow was collected in washing medium. After filtering the cell suspension trough a 100 μm nylon mesh, the cells were centrifuged (5 min, 550 g, 4° C.) and resuspended in mouse medium (10% FCS, 1% P/S, 1% L-glutamine, 0.1% β-mercaptoethanol, 1% HEPES in RPMI buffer). For the in vitro generation of BMDMs cells were plated in 6 well-plates and exposed to 20 ng/ml Macrophage […] (M-CSF) for 4 days. For the activation of the cells, Dexametason (5×10^−7M), LPS (10 μg/ml) and IL-4 (10 ng/ml) were added to the culture for the following 3 days.

CD4+ T cells = assay: TH2 differentiation of naive T cells; assay type: cell-based, mouse; settings: different concentrations, FIG. 4B
Procedure: as §3, §4
For the isolation of T lymphocytes 5-8 week old C57BL/6 mice were sacrificed by cervical dislocation and the spleens and lymph nodes (LN) were isolated and rubbed trough a 100 μm cell strainer into a 50 ml tube with washing medium (5% FCS, 1% P/S,1% HEPES in PBS). After washing, the cells were centrifuged for 5 min at 550 g at 4° C. To remove the red blood cells the […] was re-suspended in lysis buffer followed by centrifugation (5 min, 550 g, 4° C.). The cells were resuspended in MACS buffer and magnetic lymphocyte sorting was performed on ice, using the MidiMACS and QuadroMACS Seperators. A CD4 untouched and CD8 touched cell sort was performed a washing step in ml MACS buffer (5 min, 550 g, 4° C.). Cells were incubated with CD4 T cell biotin antibody cocktail (Miltenyi Biotec) in MACS buffer for 5 min at 4° C. Subsequently, anti-biotin microbeads and CD8 microbeads in MACS buffer was added. CD8 microbeads were added to reduce the possible contamination of CD8^+ lymphocytes. After 10 min of incubation at 4° C. the cells were washed again and resuspended in MACS buffer. MACS columns were pre equilibrated and topped with pre-separation filters (30 μm). A maximum of 300×10^6 cells were added to each column followed by 3 consecutive washing steps with MACS buffer. […] The purity of the magnetic cells sorts was assessed by comparing pre- and post-sort samples by flow cytometry. […]

[4] = system: experimental autoimmune encephalomyelitis (EAE) mice; assay: EAE clinical score, treatment during the chronic phase; assay type: in vivo, mouse; settings: chronic phase of EAE, vs PBS
Procedure: To test whether Link4 has similar effects to IL-4 in vivo, two pilot experiments were performed. In the first experiment (FIG. 3A), B16 mice were subjected to EAE and treated with IL-4, Link4, Ph8 and PBS (n=6-7 animals per group) via lumbar intrathecal injection directly into the cerebrospinal fluid (CSF) every other day for 14 days, in the chronic phase of the disease starting from day 5 after the first disease peak (grey bar). […] For better clinical translation, the treatment was then switched to nasal treatment with IL-4 and Link4 (FIG. 3B; 2 pooled experiments, n=15-16 per group). Nasally applied treatments can enter the brain through the cribriform plate, where olfactory nerve fibers cross through the bone, resulting in a connection between the roof of the nasal cavity and the brain (C. F. Xiao, F. J. Davis, B. C. Chauhan, K. L. Viola, P. N. Lacor, P. T. Velasco, W. L. Klein, and N. B. Chauhan, Brain transit and ameliorative effects of intranasally delivered anti-amyloid-beta oligomer antibody in 5XFAD mice. J Alzheimers Dis 35, 777-788 (2013)). Again, both IL-4 and Link4 treatments were beneficial.
For active EAE, female 9-10-weeks-old C57BI6 mice were immunized as previously described (M. Paterka, J. O. Voss, J. Werr, E. Reuter, S. Franck, T. Leuenberger, J. Herz, H. Radbruch, T. Bopp, V. Siffrin, and F. Zipp, Dendritic cells tip the balance towards induction of regulatory T cells upon priming in experimental autoimmune encephalomyelitis. J Autoimmun 67, 108-114 (2017)) by subcutaneous injection of 200 μg myelin oligodendrocyte […] 35-55 (MOG35-55) mixed with complete Freund adjuvant (CFA). Following the MOG35-55 immunization 400 ng pertussis toxin (PTX) was administered intraperitoneally at the day of immunizaton and after 24 h. Clinical signs were scored using the following parameters:
Treatment with rIL-4 (1 μg, Peprotech), Ph8 (1 μg, custom synthesized, Schafer N), Link4 (1 μg, custom synthesized, Schafer N) or vehicle (PBS) was performed during the chronic phase of the disease models by lumbar intrathecal injection (R. Lu and A. Schmidtko, Direct intrathecal drug delivery in mice for detecting in vivo effects of cGMP on pain processing. Methods Mol Biol 1020, 215-221 (2013)) or nasal application of IL-4 and Link4 was performed according to published procedures (C. F. Xiao, F. J. Davis, B. C. Chauhan, K. L. Viola, P. N. Lacor, P. T. Velasco, W. L. Klein, and N. B. Chauhan, Brain transit and ameliorative effects of intranasally delivered anti-amyloid-beta oligomer antibody in SXFAD mice. J Alzheimers Dis 35, 777-788 (2013)). Mice were pre-trained to avoid stress and held at a 45 degree angle to apply IL-4 solution (1 μg, Peprotech) to the nostrils using a pipette tip.

[5] = system: human H9 cell-derived neurons; assay: Growth assay for human H9 cells; assay type: cell-based; settings: 50 ng/ml, 24 h, vs PBS, FIG. 7B
Excerpt: B: Human Link4 induced neurite outgrowth in human H9 cell-derived neurons. Human neurons were cultivated with commercially available human neural stem cells (H9 cells), which were then differentiated to become neurons. […] The growth assay for human H9 cells described herein can be used to easily detect effects of the derivative peptides of the present invention on human neurons. In particular, this assay can be used to quickly test whether derivative peptides falling within the scope of the present invention are functional.
H9 human neural stem cells (H9 hNSCs) were purchased from Gibco and expanded according to the manufacturer's instructions. For consecutive neural differentiation hNSCs were harvested and reseeded on glass coverslips coated with Matrigel (High Concentration, Growth Factor Reduced; Corning; diluted 1:100 in Knockout DMEM [Gibco]) at a density of 25.000 cells/cm^2. hNSCs were allowed to rest for 48 hours in a basal neuronal medium (Neurobasal, 1X B27, 1x Glutamax, 1x Penicillin/Streptomycin, all from Gibco) before changing to EnStem A Neural Differentiation Medium (SCM017, Millipore) for a further 4 days. Cultures were treated with recombinant human IL-4 (Peprotech) or human Link4 at 50 ng/ml or equal volumes of PBS for 24 h. […]

[6] = cited from earlier work
[7] = lumbar intrathecal injection, 1 μg every other day for 14 days

Molecule | differentiation of CD11b+ BMDMs into F80+CD206+ cells [3] | differentiation of CD4+ T cells into Gata3+ cells (CD4+ T cells) | clinical score [4, 7] | neurite outgrowth [5] | also measured
CC[C@H](C)[C@H](NC(=O)CNC(=O)[C@@H](NC(=O)[C@@H](NC(=O)[C@@H](N)CCC(=O)O)[C@@H](C)CC)[C@@H](C)CC)C(=O)NCC(=O)N1CCC[C@H]1C(=O)N[C@@H](CCCNC(=N)N)C(=O)N[C@@H](CC(C)C)C(=O)N[C@@H](Cc1ccccc1)C(=O)N[C@@H](CCCNC(=N)N)C(=O)N[C@@H](C)C(=O)N[C@@H](Cc1ccccc1)C(=O)N[C@@H](CCCNC(=N)N)C(=O)N[C@@H](CS)C(=O)N[C@@H](CO)C(=O)NCC(=O)N[C@@H](CO)C(=O)N[C@@H](CCCNC(=N)N)C(=O)N[C@@H](C)C(=O)N[C@@H](CO)C(=O)N[C@@H](CCCCN)C(=O)N[C@H](C(=O)N[C@@H](CC(C)C)C(=O)N[C@@H](CCCNC(=N)N)C(=O)N[C@H](C(=O)N[C@@H](Cc1ccccc1)C(=O)N[C@@H](Cc1ccc(O)cc1)C(=O)N[C@@H](CC(C)C)C(=O)O)[C@@H](C)CC)C(C)C [AvoC] (H-EIIGIGPRLFRAFRCSGSRASKVLRIFYL-OH; N-terminus and C-terminus assumed) |  |  |  |  | toxic effects on fibroblasts (cell viability) [1]: no toxic effects; toxic effects on hippocampal neurons (cell viability) [2]: no toxic effects
LIRSELIEELSNITGSFITKLLSYTKQ (listed as Mus musculus) [Link13] | did not occur | did not take place |  |  | 
WNRSEIIKTGSKTIMREKY (listed as Homo sapiens) [human Link4] |  |  | equally effective as mouse Link4 | increase neurite outgrowth | 
interleukin-4 [IL-4] | increased the expression of the differentiation markers F80 and CD206 | observed | ameliorate clinical symptoms; also recorded: significant improvement in the clinical score; also recorded: significant amelioration of the clinical score |  | clinical score ([4]; lumbar intrathecal injection, 1 μg every other day for 14 days, listed as mouse full length IL-4): reducing disease symptoms; clinical score ([4]; nasal application): equally effective; also recorded: significant improvement in the clinical score; also recorded: beneficial; half-life in blood plasma [6]: very short half-life
B1 |  |  |  | increase neurite outgrowth | 

— US20200377568A1, “Novel IL-4-/IL-13-derived peptide compounds for the treatment or prevention of neurodegenerative or neuroinflammatory diseases” (Universitätsmedizin der Johannes Gutenberg-Universität Mainz, priority 2018, published 2020)
